Data as given in ChEMBL document CHEMBL5331051, “Cationic, amphipathic small molecules based on a triazine-piperazine-triazine scaffold as a new class of antimicrobial agents” (Eur J Med Chem, 2022).
In brackets after ≈: the same amount, converted by molar mass. Activity calls are given as the source filed them. The calls are words filed in the database; no cut-off is given here.

How the values were obtained:
[1] = test system: Escherichia coli; test: Antibacterial activity against Escherichia coli KCTC 1682 strain assessed as bacterial growth inhibition measured after 6 hrs in presence of trypsin by radial diffusion assay; type: functional, organism-based
[2] = test system: Pseudomonas aeruginosa; test: Antibacterial activity against multidrug-resistant Pseudomonas aeruginosa CCARM 2109 strain assessed as bacterial growth inhibition measured at 18 to 24 hrs by microdilution assay; type: functional; conditions: time 18-24 hrs
[3] = test system: Lipopolysaccharide (LPS); test: Binding affinity to Escherichia coli O111:B4 lipopolysaccharide assessed as suppression of FTIC labeled LPS binding to mouse RAW264.7 cells at 20 ug/ml pretreated with LPS followed by compound addition by flow cytometer assay (reference value: 67.4%); type: cell-based; conditions: dose 20.0 µg/ml
[4] = test system: Staphylococcus aureus; test: Antibacterial activity against methicillin-resistant Staphylococcus aureus CCARM 3090 strain assessed as bacterial growth inhibition measured at 18 to 24 hrs by microdilution assay; type: functional; conditions: time 18-24 hrs
[5] = test system: Enterococcus faecium; test: Antibacterial activity against vancomycin-resistant Enterococcus faecium ATCC 51559 strain assessed as bacterial growth inhibition measured at 18 to 24 hrs by microdilution assay; type: functional; conditions: time 18-24 hrs
[6] = test system: Pseudomonas aeruginosa; test: Antibacterial activity against multidrug-resistant Pseudomonas aeruginosa CCARM 2095 strain assessed as bacterial growth inhibition measured at 18 to 24 hrs by microdilution assay; type: functional; conditions: time 18-24 hrs
[7] = test system: Staphylococcus aureus; test: Additive antibacterial activity against methicillin-resistant Staphylococcus aureus CCARM 3089 strain assessed as bacterial growth inhibition in presence of chloramphenicol by checkerboard assay; type: functional
[8] = test system: Staphylococcus aureus; test: Additive antibacterial activity against multidrug-resistant Staphylococcus aureus CCARM 3089 strain assessed as fractional inhibitory concentration index in presence of chloramphenicol by checkerboard assay; type: functional
[9] = test system: DNA; test: Binding affinity to plasmid DNA (unknown origin) assessed as retardation of DNA migration at 4 to 8 ug/ml incubated for 1 hr by agarose gel electrophoresis method; type: nucleic-acid assay; conditions: dose 4-8 µg/ml
[10] = test system: Cell membrane; test: Induction of inner membrane permeabilization in Escherichia coli ML-35 assessed as increase in […] at 2 times MIC by ONPG staining based analysis
[11] = test system: Staphylococcus aureus; test: Antibacterial activity against methicillin-resistant Staphylococcus aureus CCARM 3089 strain assessed as bacterial growth inhibition measured at 18 to 24 hrs by microdilution assay; type: functional; conditions: time 18-24 hrs
[12] = test system: Staphylococcus aureus; test: Antibacterial activity against Staphylococcus aureus KCTC 1621 strain assessed as bacterial growth inhibition measured at 18 to 24 hrs in presence of 2.5 mM CaCl2 by microdilution assay; type: functional; conditions: time 18-24 hrs
[13] = test system: Escherichia coli; test: Antibacterial activity against Escherichia coli KCTC 1682 strain assessed as bacterial growth inhibition measured at 18 to 24 hrs in presence of 1 mM MgCl2 by microdilution assay; type: functional; conditions: time 18-24 hrs
[14] = test system: Staphylococcus aureus; test: Antibacterial activity against methicillin-resistant Staphylococcus aureus CCARM 3089 strain assessed as bacterial growth inhibition by checkerboard assay; type: functional
[15] = test system: Escherichia coli; test: Antibacterial activity against Escherichia coli KCTC 1682 strain assessed as bacterial growth inhibition measured at 18 to 24 hrs in presence of 4 uM FeCl3 by microdilution assay; type: functional; conditions: time 18-24 hrs
[16] = test system: Escherichia coli; test: Antibacterial activity against Escherichia coli KCTC 1682 strain assessed as bacterial growth inhibition measured at 18 to 24 hrs in presence of 4.5 mM KCl by microdilution assay; type: functional; conditions: time 18-24 hrs
[17] = test system: Escherichia coli; test: Antibacterial activity against Escherichia coli KCTC 1682 strain assessed as bacterial growth inhibition measured after 6 hrs in presence of chymotrypsin by radial diffusion assay; type: functional, organism-based
[18] = test system: Staphylococcus aureus; test: Antibacterial activity against methicillin-resistant Staphylococcus aureus CCARM 3095 strain assessed as bacterial growth inhibition measured at 18 to 24 hrs by microdilution assay; type: functional; conditions: time 18-24 hrs
[19] = test system: Escherichia coli; test: Antibacterial activity against Escherichia coli KCTC 1682 strain assessed as bacterial growth inhibition measured at 18 to 24 hrs by microdilution assay; type: functional; conditions: time 18-24 hrs
[20] = test system: Pseudomonas aeruginosa; test: Antibacterial activity against Pseudomonas aeruginosa KCTC 1637 strain assessed as bacterial growth inhibition measured at 18 to 24 hrs by microdilution assay; type: functional; conditions: time 18-24 hrs
[21] = test system: Staphylococcus aureus; test: Antibacterial activity against Staphylococcus aureus KCTC 1621 strain assessed as bacterial growth inhibition measured at 18 to 24 hrs by microdilution assay; type: functional; conditions: time 18-24 hrs
[22] = test system: Cell membrane; test: Induction of cell membrane damage in Escherichia coli KCTC 1682 assessed as increase in fluorescent intensity at 2 times MIC incubated for 30 mins by PI staining based flow cytometry assay (reference value: 9.79 %); type: subcellular
[23] = test system: Lipopolysaccharide (LPS); test: Binding affinity to Escherichia coli O111:B4 lipopolysaccharide assessed as suppression of FTIC labeled LPS binding to mouse RAW264.7 cells at 20 ug/ml pretreated LPS with cells for 1 hr followed by compound addition measured after 1 hr by flow cytometer assay (reference value: 48.12%); type: cell-based; conditions: dose 20.0 µg/ml
[24] = test system: Staphylococcus aureus; test: Additive antibacterial activity against multidrug-resistant Staphylococcus aureus CCARM 3089 strain assessed as oxacillin fractional inhibitory concentration by checkerboard assay; type: functional
[25] = test system: Pseudomonas aeruginosa; test: Synergistic antibacterial activity against multidrug-resistant Pseudomonas aeruginosa CCARM 2095 strain assessed as ciprofloxacin MIC by checkerboard assay; type: functional
[26] = test system: Pseudomonas aeruginosa; test: Synergistic antibacterial activity against multidrug-resistant Pseudomonas aeruginosa CCARM 2095 strain assessed as fractional inhibitory concentration index in presence of ciprofloxacin by checkerboard assay; type: functional
[27] = test system: Staphylococcus aureus; test: Synergistic antibacterial activity against multidrug-resistant Staphylococcus aureus CCARM 3089 strain assessed as oxacillin fractional inhibitory concentration by checkerboard assay; type: functional
[28] = test system: Staphylococcus aureus; test: Synergistic antibacterial activity against methicillin-resistant Staphylococcus aureus CCARM 3089 strain assessed as fractional inhibitory concentration in presence of oxacillin by checkerboard assay; type: functional
[29] = test system: Staphylococcus aureus; test: Additive antibacterial activity against multidrug-resistant Staphylococcus aureus CCARM 3089 strain assessed as fractional inhibitory concentration index in presence of oxacillin by checkerboard assay; type: functional
[30] = test system: Staphylococcus aureus; test: Synergistic antibacterial activity against methicillin-resistant Staphylococcus aureus CCARM 3089 strain assessed as bacterial growth inhibition in presence of oxacillin by checkerboard assay; type: functional
[31] = test system: Staphylococcus aureus; test: Synergistic antibacterial activity against multidrug-resistant Staphylococcus aureus CCARM 3089 strain assessed as fractional inhibitory concentration index in presence of oxacillin by checkerboard assay; type: functional
[32] = test system: Pseudomonas aeruginosa; test: Synergistic antibacterial activity against multidrug-resistant Pseudomonas aeruginosa CCARM 2095 strain assessed as bacterial growth inhibition in presence of oxacillin by checkerboard assay; type: functional
[33] = test system: Pseudomonas aeruginosa; test: Synergistic antibacterial activity against multidrug-resistant Pseudomonas aeruginosa CCARM 2095 strain assessed as oxacillin fractional inhibitory concentration in presence of oxacillin by checkerboard assay; type: functional
[34] = test system: Pseudomonas aeruginosa; test: Synergistic antibacterial activity against multidrug-resistant Pseudomonas aeruginosa CCARM 2095 strain assessed as chloramphenicol MIC by checkerboard assay; type: functional
[35] = test system: Pseudomonas aeruginosa; test: Synergistic antibacterial activity against multidrug-resistant Pseudomonas aeruginosa CCARM 2095 strain assessed as bacterial growth inhibition by checkerboard assay; type: functional
[36] = test system: Staphylococcus aureus; test: Synergistic antibacterial activity against methicillin-resistant Staphylococcus aureus CCARM 3089 strain assessed as ciprofloxacin MIC by checkerboard assay; type: functional
[37] = test system: Pseudomonas aeruginosa; test: Synergistic antibacterial activity against multidrug-resistant Pseudomonas aeruginosa CCARM 2095 strain assessed as fractional inhibitory concentration index in presence of chloramphenicol by checkerboard assay; type: functional
[38] = test system: Staphylococcus aureus; test: Synergistic antibacterial activity against multidrug-resistant Staphylococcus aureus CCARM 3089 strain assessed as ciprofloxacin fractional inhibitory concentration by checkerboard assay; type: functional

SMILES	Activity [1]	MIC [2] [µM]	Flu intensity [3] [%]	MIC [4] [µM]	MIC [5] [µM]	MIC [6] [µM]	MIC [7] [µg/mL]	fractional inhibitory concentration index (FICI) [8]	Activity [9]	Activity [10]	MIC [11] [µM]	MIC [12] [µM]	MIC [13] [µM]	MIC [14] [µg/mL]	MIC [15] [µM]	MIC [16] [µM]	Activity [17]	MIC [18] [µM]	MIC [19] [µM]	MIC [20] [µM]	also measured
N=C(N)NCCNc1nc(NCCNC(=N)N)nc(N2CC(Cc3ccccc3)N(c3nc(NCCNC(=N)N)nc(NCCNC(=N)N)n3)CC2Cc2ccccc2)n1 (configuration not stated)	Active	19.4 (≈ 16 µg/mL)	21.1	4.8 (≈ 3.96 µg/mL)	38.7 (≈ 31.9 µg/mL)	19.4 (≈ 16 µg/mL)	4	0.75	Active	inactive	9.7 (≈ 8 µg/mL)	9.6	9.7	8	19.4	9.7	Active	9.7 (≈ 8 µg/mL)	17.7 (≈ 14.6 µg/mL)	4.8 (≈ 3.96 µg/mL)	MIC [21]: 4.8 µM (≈ 3.96 µg/mL); Flu intensity [22]: 2.55%; Flu intensity [23]: 40.6%
NCCNc1nc(NCCN)nc(N2CC(Cc3ccccc3)N(c3nc(NCCN)nc(NCCN)n3)CC2Cc2ccccc2)n1 (configuration not stated)	Active	24.3 (≈ 16 µg/mL)	21.4	3 (≈ 1.97 µg/mL)	24.3 (≈ 16 µg/mL)	24.3 (≈ 16 µg/mL)	16	0.75	Active	inactive	48.6 (≈ 31.9 µg/mL)	6.1	6.1	32	12.2	6.1	Active	12.2 (≈ 8.01 µg/mL)	6.1 (≈ 4.01 µg/mL)	6.1 (≈ 4.01 µg/mL)	FIC [24]: 0.25; MIC [25]: 256 µg/mL; fractional inhibitory concentration index (FICI) [26]: 0.5; FIC [27]: 0.25; FIC [28]: 0.25; fractional inhibitory concentration index (FICI) [29]: 0.5; MIC [30]: 8 µg/mL; fractional inhibitory concentration index (FICI) [31]: 0.5; MIC [21]: 6.1 µM (≈ 4.01 µg/mL); Flu intensity [22]: 8.57%; Flu intensity [23]: 33.4%
NCCCCNc1nc(NCCCCN)nc(N2CC(Cc3ccccc3)N(c3nc(NCCCCN)nc(NCCCCN)n3)CC2Cc2ccccc2)n1 (configuration not stated)	Active	10.4 (≈ 8 µg/mL)	19.5	5.2 (≈ 4 µg/mL)	41.6 (≈ 32 µg/mL)	41.6 (≈ 32 µg/mL)	2	0.625	Active	inactive	5.2 (≈ 4 µg/mL)	10.4	10.4	4	10.4	10.4	Active	10.4 (≈ 8 µg/mL)	10.4 (≈ 8 µg/mL)	5.2 (≈ 4 µg/mL)	FIC [24]: 0.25; MIC [32]: 8 µg/mL; MIC [25]: 128 µg/mL; fractional inhibitory concentration index (FICI) [26]: 0.375; FIC [27]: 0.25; FIC [33]: 0.25; FIC [28]: 0.25; MIC [34]: 128 µg/mL; MIC [35]: 32 µg/mL; fractional inhibitory concentration index (FICI) [29]: 0.5; MIC [30]: 1 µg/mL; fractional inhibitory concentration index (FICI) [31]: 0.5; MIC [36]: 64 µg/mL; MIC [21]: 5.2 µM (≈ 4 µg/mL); fractional inhibitory concentration index (FICI) [37]: 0.375; Flu intensity [22]: 6.03%; FIC [38]: 0.125; Flu intensity [23]: 21.2%
